Laboratory results reported in the supplement of paper PMC11061612.

Key:
RH-18 (Rhabdomyosarcoma) [1] = experiment: Bliss excess, mean over the matrix (fraction); higher = more synergy
Summary of the method: (§1)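 Cell lines in DMEM/F12 or RPMI with 10% FBS were plated in 1536-well plates, held 24 hours at 37°C, 5% CO2, then given two-drug dose matrices for 72 hours (DMSO typically 0.2%). Viability was read by CellTiter-Glo 2.0 luminescence and scaled as inhibition from 0 (vehicle wells) to 1 (blank wells). Combination Emax is the second-highest inhibition in the matrix; Bliss excess is observed combination effect minus expected EA + EB − EA·EB, EA and EB being single-agent effects.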

SIMA (Neuroblastoma) [2] = experiment: as above
Summary of the method: as §1

[3] = tested on: CAL-54 (Kidney Carcinoma); experiment: combination Emax (second highest fraction inhibited in the dose matrix, 72 h); higher = more inhibition; extreme values may be limits of the assay
Summary of the method: as §1

[4] = tested on: CTB-1 (B-Cell Non-Hodgkin's Lymphoma); experiment: as above
Summary of the method: as §1

[5] = tested on: K5 (Thyroid Gland Carcinoma); experiment: as above
Summary of the method: as §1

[6] = tested on: LU-139 (Small Cell Lung Carcinoma); experiment: as above
Summary of the method: as §1

NCI-H2461 (Mesothelioma) = experiment: as above
Summary of the method: as §1

NCI-H2795 (Mesothelioma) = experiment: as above
Summary of the method: as §1

[7] = tested on: PCI-30 (Head and Neck Carcinoma); experiment: as above
Summary of the method: as §1

RH-18 (Rhabdomyosarcoma) [8] = experiment: as above
Summary of the method: as §1

SIMA (Neuroblastoma) [9] = experiment: as above
Summary of the method: as §1

[10] = tested on: SW626 (Colorectal Carcinoma); experiment: as above
Summary of the method: as §1
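Wherever Bliss excess, mean over the matrix is given: after 72 h of two-drug dosing.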

| SMILES | Bliss excess (RH-18 (Rhabdomyosarcoma) [1]) | Bliss excess (SIMA (Neuroblastoma) [2]) | combination Emax [3] | combination Emax [4] | combination Emax [5] | combination Emax [6] | combination Emax (NCI-H2461 (Mesothelioma)) | combination Emax (NCI-H2795 (Mesothelioma)) | combination Emax [7] | combination Emax (RH-18 (Rhabdomyosarcoma) [8]) | combination Emax (SIMA (Neuroblastoma) [9]) | combination Emax [10] |
| --- | --- | --- | --- | --- | --- | --- | --- | --- | --- | --- | --- | --- |
| Cc1cc2ncnn2cc1Nc1ncc2c(n1)n(C1CCOCC1)c(=O)n2C [AZD7648] + CN(C)CCCOc1ccc(-c2ccc3ncc4c(c3c2)n(C2CCOCC2)c(=O)n4C)cn1 [AZD0156] (first compound max 10 µM, 7x7, partner max 1 µM) | -0.0092 | 0.0504 | 0.353 | 0.404 | 0.501 | 0.228 | 0.448 | 0.469 | 0.234 | 0.333 | 0.312 | 0.284 |
| Cc1cc2ncnn2cc1Nc1ncc2c(n1)n(C1CCOCC1)c(=O)n2C [AZD7648] + C[C@@H]1COCCN1C2=NC(=NC(=C2)C3(CC3)[S@](=N)(=O)C)C4=C5C=CNC5=NC=C4 [AZD6738] (first compound max 10 µM, 7x7, partner max 10 µM) | 0.0727 | 0.0326 | 0.769 | 0.802 | 0.665 | 0.396 | 0.71 | 0.609 | 0.686 | 0.365 | 0.904 | 0.619 |
| Cc1cc2ncnn2cc1Nc1ncc2c(n1)n(C1CCOCC1)c(=O)n2C [AZD7648] + O=C(c1cc(Cc2n[nH]c(=O)c3ccccc23)ccc1F)N1CCN(C(=O)C2CC2)CC1 [Olaparib] (first compound max 10 µM, 7x7, partner max 10 µM) | -0.0417 | -0.02 | 0.218 | 0.331 | 0.421 | 0.131 | 0.278 | 0.421 | 0.198 | 0.182 | 0.192 | 0.13 |
| COc1cccc2c1C(=O)c1c(O)c3c(c(O)c1C2=O)C[C@@](O)(C(=O)CO)C[C@@H]3O[C@H]1C[C@H](N)[C@H](O)[C@H](C)O1 [Doxorubicin] + Cc1cc2ncnn2cc1Nc1ncc2c(n1)n(C1CCOCC1)c(=O)n2C [AZD7648] (first compound max 1 µM, 7x7, partner max 10 µM) | 0.0463 | 0.0859 | 0.802 | 0.911 | 0.823 | 0.905 | 0.867 | 0.709 | 0.721 | 0.76 | 0.854 | 0.419 |
| COc1cccc(OCCCN)c1-c1cc(Nc2cnc(C#N)cn2)n[nH]1 [Prexasertib] + C=CCn1c(=O)c2cnc(Nc3ccc(N4CCN(C)CC4)cc3)nc2n1-c1cccc(C(C)(C)O)n1 [AZD1775] (first compound max 1 µM, partner max 1 µM) | 0.154 | 0.0181 | 0.868 | 0.967 | 0.742 | 0.741 | 0.745 | 0.804 | 0.894 | 0.492 | 0.993 | 0.695 |
| COc1cccc(OCCCN)c1-c1cc(Nc2cnc(C#N)cn2)n[nH]1 [Prexasertib] + CN(C)CCCOc1ccc(-c2ccc3ncc4c(c3c2)n(C2CCOCC2)c(=O)n4C)cn1 [AZD0156] (first compound max 1 µM, 7x7, partner max 1 µM) | -0.0006 | 0.0111 | 0.863 | 0.96 | 0.767 | 0.505 | 0.745 | 0.789 | 0.813 | 0.426 | 1 | 0.707 |
| COc1cccc(OCCCN)c1-c1cc(Nc2cnc(C#N)cn2)n[nH]1 [Prexasertib] + C[C@@H]1COCCN1C2=NC(=NC(=C2)C3(CC3)[S@](=N)(=O)C)C4=C5C=CNC5=NC=C4 [AZD6738] (first compound max 1 µM, 7x7, partner max 10 µM) | 0.076 | -0.0198 | 0.84 | 0.899 | 0.7 | 0.598 | 0.721 | 0.765 | 0.773 | 0.475 | 0.989 | 0.743 |
| COc1cccc(OCCCN)c1-c1cc(Nc2cnc(C#N)cn2)n[nH]1 [Prexasertib] + Cc1cc2ncnn2cc1Nc1ncc2c(n1)n(C1CCOCC1)c(=O)n2C [AZD7648] (first compound max 1 µM, 7x7, partner max 10 µM) | 0.0455 | -0.035 | 0.821 | 0.922 | 0.704 | 0.504 | 0.693 | 0.765 | 0.721 | 0.382 | 0.992 | 0.75 |
| COc1cccc(OCCCN)c1-c1cc(Nc2cnc(C#N)cn2)n[nH]1 [Prexasertib] + O=C(c1cc(Cc2n[nH]c(=O)c3ccccc23)ccc1F)N1CCN(C(=O)C2CC2)CC1 [Olaparib] (first compound max 1 µM, 7x7, partner max 10 µM) | -0.0295 | -0.0728 | 0.792 | 0.876 | 0.634 | 0.442 | 0.652 | 0.674 | 0.548 | 0.327 | 0.97 | 0.64 |
| COc1cc2c(cc1OCCCCCOc1cc3c(cc1OC)C(=O)N1C=C(C)C[C@H]1C=N3)N=C[C@@H]1CC(C)=CN1C2=O [SG3199] + O=C(c1cc(Cc2n[nH]c(=O)c3ccccc23)ccc1F)N1CCN(C(=O)C2CC2)CC1 [Olaparib] (first compound max 0.001 µM, 7x7, partner max 10 µM) | -0.0378 | -0.0214 | 0.121 | 0.28 | 0.196 | 0.174 | 0.11 | 0.269 | 0.105 | 0.174 | 0.421 | 0.102 |
| CCc1c2c(nc3ccc(O)cc13)-c1cc3c(c(=O)n1C2)COC(=O)[C@]3(O)CC [SN-38] + CN(C)CCCOc1ccc(-c2ccc3ncc4c(c3c2)n(C2CCOCC2)c(=O)n4C)cn1 [AZD0156] (first compound max 0.3 µM, 7x7, partner max 1 µM) | -0.0477 | -0.0753 | 0.925 | 0.859 | 0.512 | 0.627 | 0.639 | 0.808 | 0.692 | 0.459 | 0.907 | 0.428 |
